Data set [1] can be described thus: Molar enthalpy of transition or fusion. To be noted: DSC.
The conditions of data set [2]: DSC. For orientation: In DSC, transitions show as peaks or steps in heat flow.

Numbers after ± are expanded uncertainties.

`COC(=O)[C@H](c1ccccc1Cl)N1CCc2sccc2C1.O=S(=O)(O)O` [(S)-(+)-Clopidogrel hydrogen sulfate]: the “Molar enthalpy of transition or fusion” value in data set [1] (Crystal 1) was 7.98 ± 0.335 kcal/mol; in data set [1] (Crystal 2) it was 9.09 ± 0.382 kcal/mol. In addition, the values for the Triple point temperature in data set [2] (Crystal 1) and in data set [2] (Crystal 2) were 458.4 ± 1 K and 454.7 ± 1 K, respectively.

Values taken from the NIST ThermoML archive (doi:10.1016/j.jct.2015.06.019).
